Tests used:
Type in all cases: cell-based, Lactococcus lactis
NZ9000NsrFH202AP = test: Growth inhibition (IC50), strain expressing ATP-hydrolysis-deficient NsrFH202AP; settings: IC50 against NZ9000NsrFH202AP divided by IC50 against NZ9000Cm
Description: (§1) The nsrfp gene from S. agalactiae COH1 was amplified from the chromosomal DNA using two primers (NsrFP_for 5′-[…]-3′ and NsrFP_rev 5′-[…]-3) and ligated into pIL-SV (E. coli–L. lactis shuttle vector) ([Alkhatib et al., 2014b]). The point mutation NsrFH202A was introduced by a standard mutagenesis protocol using the following primers: forward: 5′-[…]-3′; reverse: 5′-[…]-3′. The resulting plasmid was verified by sequencing and transformed into the L. lactis strain NZ9000 for expression ([Holo and Nes, 1989]) and the corresponding strains were termed NZ9000NsrFP and NZ9000NsrFH202AP. An empty vector pIL-SVCm was also transformed into the NZ9000 strain and was used as a control (that excludes any possible effect of induction of the plasmid), and this strain was called NZ9000Cm. The expression of the nsrfp gene is regulated by the TCS NisR/NisK present in the NZ9000 strain genome.
Cells from the different expressing strains were grown overnight in GM17 supplemented with 5 μg/ml chloramphenicol in presence of 1 ng/ml nisin. The diluted cells (final OD584 was 0.1) were incubated with a serial dilution of nisin in a 96-well plate. The total volume in each well was 200 μl, consisting of 50 μl nisin and 150 μl GM17 containing the corresponding L. lactis strain.
(§2) The plate was incubated at 30°C. After 5 h, the optical density was measured at 584 nm via 96-well plate reader BMG. The normalized optical density was plotted against the logarithm of the nisin concentration in order to calculate the IC50 of nisin and the data was evaluated using the following equation (Eq. 1):
y=ODmin+ODmax−ODmin/1+10^(log(IC50)−x) ×p
The ODmax value describes the normalized optical density value where no nisin was added, while the ODmin value corresponds to the normalized optical density of the cells grown in the highest nisin concentrations. The y represents the resulted normalized optical density value and x represents the logarithmic of the nisin concentration added. The IC50 value is the concentration of nisin where the growth of the L. lactis strain is inhibited by 50% ([Abts et al., 2011]).
We determined the IC50 value of nisin against the NZ9000Cm sensitive strain as well as the strain NZ9000NsrFP and NZ9000NsrFH202AP. By dividing these two values the fold of resistance is obtained. […] Dividing these two values results in a fold of resistance of 16.7.

NZ9000NsrFP = test: Growth inhibition (IC50), strain expressing NsrFP; settings: IC50 against NZ9000NsrFP divided by IC50 against NZ9000Cm
Description: as §1, with “genome. […]” for “genome.”
as §2, with “1): […]” for “1):”
We determined the IC50 value of nisin against the NZ9000Cm sensitive strain as well as the strain NZ9000NsrFP and NZ9000NsrFH202AP. […]

NZ9000Cm = test: Growth inhibition (IC50), nisin-sensitive control strain with empty vector; settings: product of NSR cleavage (last six amino acids cleaved off)
Description: as §1
Cells from the different expressing strains were grown overnight in GM17 supplemented with 5 μg/ml chloramphenicol in presence of 1 ng/ml nisin. […]
as §2, with “1): […]” for “1):”

## C=C(NC(=O)[C@@H](NC(=O)[C@H](CCCCN)NC(=O)[C@@H](NC(=O)[C@H](CO)NC(=O)[C@@H]1CS[C@@H](C)[C@H]2NC(=O)[C@H](C)NC(=O)[C@H](NC(=O)[C@H](CCCCN)NC(=O)[C@H](Cc3ccc(O)cc3)NC(=O)[C@H](CC(N)=O)NC(=O)[C@@H]3CS[C@@H](C)[C@@H](NC(=O)[C@H](CCCCN)NC(=O)[C@@H]4CS[C@@H](C)[C@@H](NC(=O)[C@@H]5CSC[C@@H](NC(=O)/C(=C/C)NC(=O)[C@@H](N)Cc6ccccc6)C(=O)N[C@@H]([C@@H](C)CC)C(=O)NC(=C)C(=O)N[C@@H](CCSC)C(=O)N5)C(=O)N5CCC[C@H]5C(=O)NCC(=O)N4)C(=O)NCC(=O)N[C@@H](C)C(=O)N[C@@H](CC(C)C)C(=O)N[C@@H](CCSC)C(=O)N/C(=C\C)C(=O)N3)[C@H](C)SC[C@H](NC2=O)C(=O)N[C@@H](Cc2c[nH]cn2)C(=O)N1)[C@@H](C)CC)C(C)C)C(=O)N[C@@H](CCCCN)C(=O)O [Nisin H]
NZ9000NsrFH202AP
  Fold of resistance NZ9000NsrFH202AP: 1.1 fold
NZ9000NsrFP
  Fold of resistance NZ9000NsrFP: 12.3 fold

## C/C=C(\NC(=O)[C@H](CCCCN)NC(=O)[C@H](C)NC(=O)[C@@H]1CS[C@@H](C)[C@@H](NC(=O)[C@@H]2CSC[C@@H](NC(=O)[C@H](C)NC(=O)[C@@H](N)[C@@H](C)CC)C(=O)N[C@@H](CCCCN)C(=O)N[C@@H](Cc3ccccc3)C(=O)N[C@@H](CC(C)C)C(=O)N2)C(=O)N2CCC[C@H]2C(=O)NCC(=O)N1)C(=O)NCC(=O)N[C@@H]1CSC[C@@H]2NC(=O)[C@H](Cc3ccc(O)cc3)NC(=O)[C@@H](CS/C=C\NC2=O)NC(=O)[C@H](CC(N)=O)NC(=O)[C@H](Cc2ccccc2)NC1=O [Gallidermin]
NZ9000NsrFH202AP
  Fold of resistance NZ9000NsrFH202AP: 0.9 fold
NZ9000NsrFP
  Fold of resistance NZ9000NsrFP: 12.5 fold

## C=C1NC(=O)[C@H]([C@@H](C)CC)NC(=O)[C@H](NC(=O)/C(=C/C)NC(=O)[C@@H](N)[C@@H](C)CC)CSC[C@@H](C(=O)N[C@H]2C(=O)N3CCC[C@H]3C(=O)NCC(=O)N[C@H](C(=O)N[C@@H](CCCCN)C(=O)N[C@H]3C(=O)NCC(=O)N[C@@H](C)C(=O)N[C@@H](CC(C)C)C(=O)N[C@@H](CCSC)C(=O)NCC(=O)N[C@H](C(=O)N[C@@H](CC(N)=O)C(=O)N[C@@H](CCSC)C(=O)N[C@@H](CCCCN)C(=O)N[C@H]4C(=O)N[C@@H](C)C(=O)N[C@H]5C(=O)N[C@@H](CS[C@H]4C)C(=O)N[C@@H](Cc4c[nH]cn4)C(=O)N[C@H](C(=O)O)CS[C@H]5C)CS[C@H]3C)CS[C@H]2C)NC(=O)[C@H](CC(C)C)NC1=O [Nisin1-28]
NZ9000Cm
  Fold lower activity compared with nisin: 32 fold
NZ9000NsrFH202AP
  Fold of resistance NZ9000NsrFH202AP: 0.4 fold

## C=C1NC(=O)[C@H]([C@@H](C)CC)NC(=O)[C@H](NC(=O)/C(=C/C)NC(=O)[C@@H](N)[C@@H](C)CC)CSC[C@@H](C(=O)N[C@H]2C(=O)N3CCC[C@H]3C(=O)NCC(=O)N[C@H](C(=O)N[C@@H](CCCCN)C(=O)N[C@H]3C(=O)NCC(=O)N[C@@H](C)C(=O)N[C@@H](CC(C)C)C(=O)N[C@@H](CCSC)C(=O)NCC(=O)N[C@H](C(=O)N[C@@H](CC(N)=O)C(=O)N[C@@H](CCSC)C(=O)N[C@@H](CCCCN)C(=O)O)CS[C@H]3C)CS[C@H]2C)NC(=O)[C@H](CC(C)C)NC1=O [Nisin1-22]
NZ9000NsrFH202AP
  Fold of resistance NZ9000NsrFH202AP: 0.7 fold
